Experimental data taken from the supplement of paper PMC10331698.
± gives the standard deviation of the averaged measurements.

What was measured:
Assay in all cases: level (log10 ratio to DMSO vehicle control); higher = higher biomarker level / cell amount than vehicle control
Details in all cases: in DMSO
[1] = compound: C=CC(=O)OCCC(F)(F)C(F)(F)C(F)(F)C(F)(F)C(F)(F)C(F)(F)C(F)(F)C(F)(F)F [8:2 Fluorotelomer acrylate]
Experimental: (§1)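 BioMAP Diversity Plus panel of 12 human primary cell co-culture systems (3C, 4H, LPS, SAg, BT, BF4T, BE3C, CASM3C, HDF3CGF, KF3CT, MyoF, Mphg). Compounds were added 1 h before stimulation and left for 24 h (MyoF 48 h; BT 72 h for soluble read-outs or 6 d for IgG). Biomarkers were read by ELISA, cytotoxicity by SRB, PBMC viability and proliferation by Alamar Blue. Each well value was divided by the mean of 8 DMSO control wells on the same plate and log10 transformed; duplicate blinded samples were tested at 4 concentrations.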

[2] = compound: CN(Cc1cnc2nc(N)nc(N)c2n1)c1ccc(C(=O)N[C@@H](CCC(=O)O)C(=O)O)cc1 [Methotrexate]
Experimental: as §1

[3] = compound: O=P(O)(O)CCC(F)(F)C(F)(F)C(F)(F)C(F)(F)C(F)(F)C(F)(F)F [2-(Perfluorohexyl)ethylphosphonic acid]
Experimental: as §1

[4] = compound: O=S(=O)(OCC(F)(F)F)C(F)(F)C(F)(F)C(F)(F)C(F)(F)F [2,2,2-Trifluoroethyl perfluorobutanesulfonate]
Experimental: as §1

[5] = compound: OC(C(F)(F)F)(C(F)(F)F)C(O)(C(F)(F)F)C(F)(F)F [Perfluoropinacol]
Experimental: as §1

[6] = compound: OCCCCC(F)(F)C(F)(F)C(F)(F)C(F)(F)F [4:4 Fluorotelomer alcohol]
Experimental: as §1

Test System | level (log10) ([1]; 6700 nM) | level (log10) ([1]; 20000 nM) | level (log10) ([1]; 60000 nM) | level (log10) ([2]; 1500 nM) | level (log10) ([2]; 4400 nM) | level (log10) ([2]; 13000 nM) | level (log10) ([2]; 40000 nM) | level (log10) ([3]; 6700 nM) | level (log10) ([3]; 20000 nM) | level (log10) ([3]; 60000 nM) | level (log10) ([4]; 6700 nM) | level (log10) ([4]; 20000 nM) | level (log10) ([4]; 60000 nM) | level (log10) ([5]; 6700 nM) | level (log10) ([5]; 20000 nM) | level (log10) ([6]; 6700 nM) | level (log10) ([6]; 20000 nM) | level (log10) ([6]; 60000 nM)
LPS:sPGE2 | -0.118 ± 0.005 | -0.102 ± 0.044 | -0.069 ± 0.03 | 0.011 ± 0.025 | -0.0045 ± 0.057 | -0.0135 ± 0.067 | -0.0235 ± 0.021 | -0.0245 ± 0.013 | -0.0005 ± 0.019 | 0.0035 ± 0.025 | 0.049 ± 0.02 | -0.006 ± 0.038 | -0.024 ± 0.018 | 0.086 ± 0.038 | 0.182 ± 0.015 | 0.0035 ± 0.0092 | -0.015 ± 0.0099 | -0.015 ± 0.055
3C:SRB | -0.001 ± 0.03 | 0.008 ± 0.018 | 0.0075 ± 0.005 | 0.0055 ± 0.0035 | 0 ± 0.017 | 0.011 ± 0.028 | -0.0155 ± 0.0021 | 0.0015 ± 0.032 | 0.0085 ± 0.015 | -0.006 ± 0.028 | -0.0135 ± 0.0021 | -0.014 ± 0.0028 | -0.0295 ± 0.012 | -0.0665 ± 0.013 | -0.188 ± 0.0028 | -0.0075 ± 0.025 | 0.004 ± 0.025 | 0.0095 ± 0.032
BE3C:CXCL8/IL-8 | -0.019 ± 0.027 | -0.013 ± 0.033 | 0.043 ± 0.021 | 0.0795 ± 0.069 | 0.035 ± 0.089 | 0.053 ± 0.057 | 0.048 ± 0.11 | -0.064 ± 0.017 | -0.0635 ± 0.0064 | -0.0555 ± 0.06 | 0.001 ± 0.0071 | -0.0035 ± 0.026 | 0.0225 ± 0.021 | -0.049 ± 0.0014 | -0.203 ± 0.021 | -0.013 ± 0.016 | -0.0155 ± 0.0021 | 0.029 ± 0.04
4H:CCL2/MCP-1 | -0.025 ± 0.018 | -0.016 ± 0.023 | 0.012 ± 0.051 | -0.02 ± 0.011 | -0.035 ± 0.02 | -0.0215 ± 0.023 | 0.0105 ± 0.0021 | -0.0295 ± 0.0092 | -0.031 ± 0.025 | -0.0215 ± 0.054 | -0.0345 ± 0.015 | -0.046 ± 0.0014 | -0.0385 ± 0.021 | -0.058 ± 0.023 | -0.168 ± 0.025 | 0.0135 ± 0.011 | -0.016 ± 0.023 | 0.023 ± 0.055
BF4T:uPA | -0.0405 ± 0.039 | -0.033 ± 0.025 | -0.023 ± 0.031 | 0.013 ± 0.0085 | 0.0115 ± 0.0078 | 0.005 ± 0.03 | 0.009 ± 0.028 | -0.0445 ± 0.037 | -0.0475 ± 0.028 | -0.0465 ± 0.013 | -0.0085 ± 0.018 | -0.008 ± 0.035 | -0.015 ± 0.023 | -0.0305 ± 0.019 | -0.0365 ± 0.0064 | -0.0125 ± 0.0078 | -0.015 ± 0.0028 | 0.0105 ± 0.04
LPS:CD141/Thrombomodulin | -0.044 ± 0.04 | -0.085 ± 0.016 | -0.0925 ± 0.03 | 0.016 ± 0.03 | -0.0155 ± 0.036 | 0.0085 ± 0.015 | -0.0025 ± 0.023 | -0.004 ± 0.11 | -0.0055 ± 0.11 | 0.0315 ± 0.032 | -0.0075 ± 0.03 | 0.0145 ± 0.04 | 0.067 ± 0.025 | -0.106 ± 0.028 | -0.118 ± 0.005 | 0.0135 ± 0.032 | 0.0215 ± 0.0078 | 0.007 ± 0.0085
BF4T:Keratin 8/18 | -0.014 ± 0.0042 | -0.0045 ± 0.00071 | 0.0115 ± 0.015 | 0.005 ± 0.038 | -0.0385 ± 0.005 | -0.006 ± 0.054 | 0.0155 ± 0.028 | -0.0045 ± 0.015 | -0.0065 ± 0.012 | 0.0105 ± 0.022 | 0.002 ± 0.016 | -0.0025 ± 0.016 | -0.0335 ± 0.0078 | -0.013 ± 0.0099 | -0.036 ± 0.0071 | 0.012 ± 0.0028 | -0.001 ± 0.0014 | 0.009 ± 0.034
